From US20230374038A1, “MODULATORS OF CYSTIC FIBROSIS TRANSMEMBRANE CONDUCTANCE REGULATOR” (VERTEX PHARMACEUTICALS INCORPORATED, priority 2020, published 2023)
One block for each compound: values may come before it.

Columns and labels:
CFTR [1] = biological target: T1, CFTR (Homo sapiens, UniProt P13569, DEL508-508); assay: HBE Assay: Ussing chamber assay of CFTR-mediated short-circuit currents in F508del/MF-HBE cells with 1 μM Ivacaftor; format: cell-based; conditions: 20% human serum; for Emax: compared to known Vertex corrector with 18 μM Tezacaftor and 1 μM Ivacaftor, read-out: HBE Max activity (%); for HBE Activity at 10 μM: single fixed concentration of 10 μM
T1 construct: endogenous in cells; host or cells: primary human bronchial epithelial cells, F508del/MF genotype
T1 sequence (P13569 with tags, fused parts or gaps DEL508-508): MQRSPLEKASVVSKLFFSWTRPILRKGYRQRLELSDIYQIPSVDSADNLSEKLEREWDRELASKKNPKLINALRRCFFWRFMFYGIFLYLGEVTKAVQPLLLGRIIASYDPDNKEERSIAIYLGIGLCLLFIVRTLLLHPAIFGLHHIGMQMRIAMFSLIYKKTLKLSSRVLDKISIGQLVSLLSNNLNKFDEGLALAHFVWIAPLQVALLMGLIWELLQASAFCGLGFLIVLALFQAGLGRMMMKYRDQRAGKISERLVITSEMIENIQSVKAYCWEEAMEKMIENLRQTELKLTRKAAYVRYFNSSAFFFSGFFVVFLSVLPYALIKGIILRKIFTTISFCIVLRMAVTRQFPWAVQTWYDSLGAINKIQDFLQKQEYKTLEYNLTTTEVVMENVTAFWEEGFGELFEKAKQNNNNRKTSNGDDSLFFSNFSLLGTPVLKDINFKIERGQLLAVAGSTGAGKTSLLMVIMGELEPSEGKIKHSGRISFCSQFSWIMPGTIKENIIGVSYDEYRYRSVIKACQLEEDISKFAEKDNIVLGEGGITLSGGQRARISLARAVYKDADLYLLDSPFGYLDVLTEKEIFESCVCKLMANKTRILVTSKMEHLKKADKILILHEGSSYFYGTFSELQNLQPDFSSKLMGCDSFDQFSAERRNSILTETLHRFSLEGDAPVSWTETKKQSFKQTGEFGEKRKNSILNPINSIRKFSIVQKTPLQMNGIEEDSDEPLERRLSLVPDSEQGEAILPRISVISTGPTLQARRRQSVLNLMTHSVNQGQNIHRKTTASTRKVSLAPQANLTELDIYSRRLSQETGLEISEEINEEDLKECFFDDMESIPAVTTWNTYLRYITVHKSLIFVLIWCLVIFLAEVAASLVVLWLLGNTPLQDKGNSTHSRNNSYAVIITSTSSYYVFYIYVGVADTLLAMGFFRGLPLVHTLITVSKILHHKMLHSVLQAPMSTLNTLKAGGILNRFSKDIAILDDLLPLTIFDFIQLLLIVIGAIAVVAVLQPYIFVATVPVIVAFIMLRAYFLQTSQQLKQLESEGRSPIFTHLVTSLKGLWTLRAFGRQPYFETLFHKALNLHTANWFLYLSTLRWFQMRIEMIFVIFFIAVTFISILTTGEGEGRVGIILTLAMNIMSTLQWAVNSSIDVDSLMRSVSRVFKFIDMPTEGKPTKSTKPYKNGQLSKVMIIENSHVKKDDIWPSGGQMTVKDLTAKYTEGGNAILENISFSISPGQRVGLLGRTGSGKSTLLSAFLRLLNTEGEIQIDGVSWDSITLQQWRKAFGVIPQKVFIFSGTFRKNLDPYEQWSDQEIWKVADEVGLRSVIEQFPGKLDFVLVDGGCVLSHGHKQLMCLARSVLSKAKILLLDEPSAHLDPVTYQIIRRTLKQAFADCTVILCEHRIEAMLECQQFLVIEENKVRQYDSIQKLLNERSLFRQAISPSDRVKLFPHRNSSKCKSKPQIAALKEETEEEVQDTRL
Method: Ussing chamber experiments were performed using human bronchial epithelial (HBE) cells derived from CF subjects heterozygous for F508del and a minimal function CFTR mutation (F508del/MF-HBE) and cultured as previously described (Neuberger T, Burton B, Clark H, Van Goor F Methods Mol Biol 2011:741:39-54). After four days the apical media was removed, and the cells were grown at an air liquid interface for >14 days prior to use.
(§1) To isolate the CFTR-mediated short-circuit (ISC) current, F508del/MF-HBE grown on Costar® Snapwell™ cell culture inserts were mounted in an Ussing chamber and the transepithelial ISC was measured under voltage-clamp recording conditions (Vhold=0 mV) at 37° C. The basolateral solution contained (in mM) 145 NaCl, 0.83 K2HIPO4, 3.3 KH2PO4, 1.2 MgCl2, 1.2 CaCl2), 10 Glucose, 10 HEPES (pH adjusted to 7.4 with NaOH) and the apical solution contained (in mM) 145 NaGluconate, 1.2 MgCl2, 1.2 CaCl2), 10 glucose, 10 HEPES (pH adjusted to 7.4 with NaOH) and 30 μM amiloride to block the epithelial sodium channel. Forskolin (20 μM) was added to the apical surface to activate CFTR, followed by apical addition of a CFTR inhibitor cocktail consisting of BPO, GlyH-101, and CFTR inhibitor 172 (each at 20 μM final assay concentration) to specifically isolate CFTR currents. The CFTR-mediated ISC (μA/cm^2) for each condition was determined from the peak forskolin response to the steady-state current following inhibition.
The activity of the CFTR corrector compounds on the CFTR-mediated ISC was determined in Ussing chamber studies as described above. The F508del/MF-HBE cell cultures were either incubated with the corrector compounds at a range of concentrations in combination with 1 μM Ivacaftor or were incubated with the corrector compounds at a single fixed concentration of 10 μM in combination with 1 μM Ivacaftor for 18-24 hours at 37° C. and in the presence of 20% human serum. The concentration of corrector compounds with 1 μM Ivacaftor during the 18-24 hours incubations was kept constant throughout the Ussing chamber measurement of the CFTR-mediated ISC to ensure compounds were present throughout the entire experiment.
as §1, with “K2HPO4,” for “K2HIPO4,”

CFTR [2] = biological target: CFTR (Homo sapiens, UniProt P13569); assay: Membrane Potential Dye, Enteroid Assay B; format: cell-based; conditions: for EC50: read-out: Ent. B EC50
Sequence of CFTR (Homo sapiens, UniProt P13569) (P13569 with tags, fused parts or gaps DEL508-508): as above
In short: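 Membrane-potential fluorescence read over 15 min after chloride-free stimulation (forskolin 10 μM, IBMX 100 μM, Compound III 300 nM), with CaCCinh-A01 and Chicago Sky Blue present. Enteroids had 18-24 h compound exposure at 37 °C; activity given as % of the triple-combination corrector/potentiator reference response.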

[3] = range of concentrations with 1 μM Ivacaftor, 18-24 hours
[4] = with 1 μM Ivacaftor, 18-24 hours

SMILES: Cc1cccc(C)c1-c1nc2nc(c1C)OC[C@@H](CC1CC1)N(Cc1ncc(OC(C)C)cn1)C(=O)c1cccc(c1)S(=O)(=O)N2 [Compound 345]
- EC50 (CFTR [1]; [3]): < 1000 nM
- Emax (CFTR [1]; [4]): > 60%

SMILES: COc1c2nc(nc1-c1c(C)cccc1C)NS(=O)(=O)c1cccc(c1)C(=O)N(Cc1ncc(OC(C)C)cn1)[C@H](CC(C)C)CO2 [Compound 348]
- EC50 (CFTR [1]; [3]): < 1000 nM
- Emax (CFTR [1]; [4]): > 60%

SMILES: Cc1cccc(C)c1-c1nc2nc(c1C)OC[C@@H](CC1CCC1)N(Cc1ncc(OC(C)C)cn1)C(=O)c1cccc(c1)S(=O)(=O)N2 [Compound 355]
- HBE Activity at 10 μM (%) (CFTR [1]; single fixed concentration of 10 μM with 1 μM Ivacaftor, 18-24 hours): +++ (+++ is >60%)

SMILES: Cc1cccc(C)c1-c1nc2nc(c1F)OC[C@@H](CC(C)C)N(Cc1ncc(OC(C)C)cn1)C(=O)c1cccc(c1)S(=O)(=O)N2 [Compound 337]
- EC50 (CFTR [1]; [3]): < 1000 nM
- Emax (CFTR [1]; [4]): > 60%

SMILES: Cc1cccc(CC(C)C)c1-c1nc2nc(c1C)OC[C@@H](CC(C)(C)C)N(Cc1ncc(N3CCC(C)(C)C3)cn1)C(=O)c1cccc(c1)S(=O)(=O)N2 (atropisomer, axis not shown) [Compound 243]
- EC50 (CFTR [1]; [4]): 1000 to 3000 nM
- HBE Max Activity (CFTR [1]; [4]): +++ (+++ is >600%)

SMILES: Cc1cccc(CC(C)(C)C)c1-c1nc2nc(c1C)OC[C@@H](CC(C)(C)C)N(Cc1ncc(N3CCC(C)(C)C3)cn1)C(=O)c1cccc(c1)S(=O)(=O)N2 (single isomer, unassigned) [Compound 215]
- EC50 (CFTR [1]; [4]): < 1000 nM
- HBE Max Activity (CFTR [1]; [4]): +++ (+++ is >600%)

SMILES: Cc1cccc(C)c1-c1nc2nc(c1C)OC[C@@H](CC(C)C)N(Cc1ncc(N3CCC(C)(C)CC3)cn1)C(=O)c1cccc(c1)S(=O)(=O)N2 [Compound 198]
- EC50 (CFTR [1]; [4]): < 1000 nM
- HBE Max Activity (CFTR [1]; [4]): +++ (+++ is >600%)

SMILES: Cc1cccc(CC(C)C)c1-c1nc2nc(c1C)OC[C@@H](CC(C)C)N(Cc1ncc(CC(C)C)cn1)C(=O)c1cccc(c1)S(=O)(=O)N2 (atropisomer, axis not shown; (P)) [Compound 219, (5P,11R)-11-isobutyl-6-(2-isobutyl-6-methyl-phenyl)-12-[(5-isobutylpyrimidin-2-yl)methyl]-7-methyl-2,2-dioxo-9-oxa-2^6-thia-3,5,12,19-tetrazatricyclo[12.3.1.14,8]nonadeca-1(18),4(19),5,7,14,16-hexaen-13-one]
- EC50 (CFTR [1]; [4]): < 1000 nM
- HBE Max Activity (CFTR [1]; [4]): +++ (+++ is >600%)

SMILES: Cc1cccc(CC(C)(C)C)c1-c1nc2nc(c1C)OC[C@@H](CC(C)(C)C)N(Cc1ncc(N3CCC(C)(C)C3)cn1)C(=O)c1cccc(c1)S(=O)(=O)N2 (atropisomer, axis not shown; (M)) [Compound 214, (5M,11R)-11-(2,2-dimethylpropyl)-6-[2-(2,2-dimethylpropyl)-6-methylphenyl]-12-{[5-(3,3-dimethylpyrrolidin-1-yl)pyrimidin-2-yl]methyl}-7-methyl-9-oxa-2λ^6-thia-3,5,12,19-tetraazatricyclo[12.3.1.14,8]nonadeca-1(17),4(19),5,7,14(18),15-hexaene-2,2,13-trione]
- HBE Activity at 10 μM (CFTR [1]; with 1 μM Ivacaftor): ++ (++ is 30-60%)

SMILES: Cc1cccc(CC2CCCCC2)c1-c1nc2nc(c1C)OC[C@@H](CC(C)(C)C)N(Cc1ccc(C3CCCCC3)cn1)C(=O)c1cccc(c1)S(=O)(=O)N2 (atropisomer, axis not shown) [Compound 277]
- EC50 (CFTR [1]; [4]): < 1000 nM
- HBE Max Activity (CFTR [1]; [4]): +++ (+++ is >600%)

SMILES: Cc1cccc(CC2CCCCC2)c1-c1nc2nc(c1C)OC[C@@H](CC(C)(C)C)N(Cc1ncc(N3CCC(C)(C)C3)cn1)C(=O)c1cccc(c1)S(=O)(=O)N2 (atropisomer, axis not shown) [Compound 254]
- EC50 (CFTR [1]; [4]): 1000 to 3000 nM
- HBE Max Activity (CFTR [1]; [4]): +++ (+++ is >600%)

SMILES: Cc1cccc(OC(C)C)c1-c1nc2nc(c1C)OC[C@@H](CC(C)(C)C)N(Cc1cncc(N(C)CC(C)(C)C)n1)C(=O)c1cccc(c1)S(=O)(=O)N2 (atropisomer, axis not shown) [Compound 332]
- EC50 (CFTR [1]; [3]): < 1000 nM
- Emax (CFTR [1]; [4]): > 60%

SMILES: Cc1cccc(CC2CCCCC2)c1-c1nc2nc(c1C)OC[C@@H](CC(C)(C)C)N(Cc1ccc(C3CCOCC3)cn1)C(=O)c1cccc(c1)S(=O)(=O)N2 [Compound 257]
- EC50 (CFTR [1]; [4]): < 1000 nM
- HBE Max Activity (CFTR [1]; [4]): +++ (+++ is >600%)

SMILES: COCCN1CCC2(CC1)CC(N1C(=O)c3cccc(c3)S(=O)(=O)Nc3nc(c(OC)c(-c4c(C)cccc4C)n3)OC[C@H]1CC(C)C)C2 [Compound 166, (11R)-6-(2,6-dimethylphenyl)-11-isobutyl-7-methoxy-12-[7-(2-methoxyethyl)-7-azaspiro[3.5]nonan-2-yl]-2,2-dioxo-9-oxa-2λ^6-thia-3,5,12,19-tetrazatricyclo[12.3.1.14,8]nonadeca-1(18),4(19),5,7,14,16-hexaen-13-one]
- Ent. B Max Activity (CFTR [2]): +++ (+++ is >60%)
- EC50 (CFTR [2]): < 1000 nM

SMILES: Cc1cccc(C)c1-c1nc2nc(c1C)OC[C@@H](CC(C)(C)O)N(Cc1ncccn1)C(=O)c1cccc(c1)S(=O)(=O)N2 [Compound 111]
- Ent. B Max Activity (CFTR [2]): +++ (+++ is >60%)
- EC50 (CFTR [2]): 1000 to 3000 nM

Second part, the compound after the results:

- EC50 (CFTR [1]; [4]): < 1000 nM
- HBE Max Activity (CFTR [1]; [4]): +++ (+++ is >600%)
SMILES: COc1ccc(CN2C(=O)c3cccc(c3)S(=O)(=O)Nc3nc(c(C)c(-c4c(C)cccc4CC4CCCCC4)n3)OC[C@H]2CC(C)(C)C)nc1 (atropisomer, axis not shown) [Compound 302]

- EC50 (CFTR [1]; [4]): < 1000 nM
- HBE Max Activity (CFTR [1]; [4]): +++ (+++ is >600%)
SMILES: CCc1cccc(C)c1-c1nc2nc(c1C)OC[C@@H](CC(C)(C)C)N(Cc1ccc(N3CCOCC3)cn1)C(=O)c1cccc(c1)S(=O)(=O)N2 (atropisomer, axis not shown) [Compound 286]

- EC50 (CFTR [1]; [4]): < 1000 nM
- HBE Max Activity (CFTR [1]; [4]): +++ (+++ is >600%)
SMILES: COCCN(C)c1ccc(CN2C(=O)c3cccc(c3)S(=O)(=O)Nc3nc(c(C)c(-c4c(C)cccc4CC(C)C)n3)OC[C@H]2CC(C)(C)C)nc1 (atropisomer, axis not shown) [Compound 292]

- EC50 (CFTR [1]; [4]): < 1000 nM
- HBE Max Activity (CFTR [1]; [4]): +++ (+++ is >600%)
SMILES: Cc1cccc(CC2CCOCC2)c1-c1nc2nc(c1C)OC[C@@H](CC(C)(C)C)N(Cc1ncc(N3CCOCC3)cn1)C(=O)c1cccc(c1)S(=O)(=O)N2 (single isomer, unassigned) [Compound 218]

- EC50 (CFTR [1]; [4]): < 1000 nM
- HBE Max Activity (CFTR [1]; [4]): +++ (+++ is >600%)
SMILES: Cc1cccc(C(C)C)c1-c1nc2nc(c1C)OC[C@@H](CC(C)(C)C)N(Cc1ccc(N3CCOCC3)cn1)C(=O)c1cccc(c1)S(=O)(=O)N2 (atropisomer, axis not shown) [Compound 299]

- EC50 (CFTR [1]; [4]): < 1000 nM
- HBE Max Activity (CFTR [1]; [4]): +++ (+++ is >600%)
SMILES: Cc1cccc(CC2CCCC2)c1-c1nc2nc(c1C)OC[C@@H](CC(C)(C)C)N(Cc1ncc(N3CCOCC3)cn1)C(=O)c1cccc(c1)S(=O)(=O)N2 (atropisomer, axis not shown) [Compound 280]

- EC50 (CFTR [1]; [4]): < 1000 nM
- HBE Max Activity (CFTR [1]; [4]): +++ (+++ is >600%)
SMILES: Cc1c2nc(nc1-c1ccccc1C(C)C)NS(=O)(=O)c1cccc(c1)C(=O)N(Cc1ccc(N3CCOCC3)cn1)[C@H](CC(C)(C)C)CO2 [Compound 182]

- HBE Activity at 10 μM (CFTR [1]; with 1 μM Ivacaftor): +++ (+++ is >600%)
SMILES: Cc1cccc(CC2CCOCC2)c1-c1nc2nc(c1C)OC[C@@H](CC(C)(C)C)N(Cc1ccc(N3CCOCC3)cn1)C(=O)c1cccc(c1)S(=O)(=O)N2 (atropisomer, axis not shown) [Compound 275]

- EC50 (CFTR [1]; [4]): < 1000 nM
- HBE Max Activity (CFTR [1]; [4]): +++ (+++ is >600%)
SMILES: Cc1cccc(CC2CCCCC2)c1-c1nc2nc(c1C)OC[C@@H](CC(C)(C)C)N(Cc1ccc(N3CCCCC3)cn1)C(=O)c1cccc(c1)S(=O)(=O)N2 (atropisomer, axis not shown) [Compound 307]
